{"source": "patent US20070141571A1", "about": "“Diagnostics and therapeutics for diseases associated with endothelial differentiation, sphingolipid g-protein-coupled receptor 6(edg6)” (BAYER HEALTHCARE AG, priority 2003, published 2007)", "key": {"[1]": {"system": "HEL/EDG6 cells", "test": "morphogenesis assay, HEL/EDG6", "assay_type": "cell-based, human", "settings": "72 hours", "procedure": "(§1) To obtain an insight into potential mechanisms, we treated HEL/EDG6 and HEL/CV with a variety of cytoskeletal modulators in the presence of PMA. […] To test if suppression of the Rho-kinase pathway is responsible for the formation of cytosolic extensions, the cells were treated with C3 exoenzyme, a Rho inhibitor, before PMA treatment. […] Alternatively, activation of other Rho family GTPases might cause the process formation, since reciprocal regulation between Rho and Rac/Cdc42 is observed in some cell types [E. E. Sandera, et al., (1999)]. Activation of Rho, Rac, and Cdc42, were investigated in HEL/CV and HEL/EDG6 after serum starvation and subsequent stimulation with S1P."}, "[2]": {"system": "HEL cells", "test": "morphogenesis assay, HEL parental cells", "assay_type": "cell-based, human", "settings": "PMA 10 nM, 72 hours", "text": "Small particles (arrowhead) and a particle about to bud off from the cytosolic extension (arrow) are seen in HEL/S1P4 treated with PMA.\nAs reported, HEL parental cells develop into polyploidal large adherent cells with PMA treatment. […] Depositions of small particles and particles about to bud off from the end of the projections were also observed (FIG. 7). […] The observed prominent change of phenotype, thus can potentially be attributed to a rapid accumulation of S1P after treatment of PMA. As PMA is a pleiotropic substance, it is not easy to elucidate direct roles of sphingosine kinase in the phenomena.\nMorphogenesis assay: Ten million cells were plated on a 24-well plate with or without 30 μM of the Rho-kinase inhibitor Y27632 (Calbiochem, CA). PMA (10 nM final) was added to the culture 30 minutes after plating. Cells were cultured for 72 hours and photographed. For studies using C3 exoenzyme, 2×10^5 cells in 0.5 ml culture medium were plated on a 24-well plate with or without 3 μg/ml of C3 exsoenzyme (Upstate, N.Y.), and cultured overnight. Fresh culture medium containing PMA and C3 exoenzyme was added to each well to give final PMA and C3 exoenzyme concentrations at 10 nM and 3 μg/ml, respectively. Cells were cultured for 72 hours and photographed."}, "[3]": {"system": "HEL/EDG6 platelet-like particles", "test": "PF4 release from platelet-like particles", "assay_type": "cell-based, human", "settings": "100 nM PMA or 50 μM ADP 10 min; 0.5 units/ml thrombin 2 min; data not shown", "procedure": "During propagation of HEL/EDG6, we observed an accumulation of small particles in the culture supernatant. They were harvested by two-step sedimentation centrifugation and analyzed. […] In order to investigate if the platelet-like particles were functional, they were stimulated and the release of Platelet Factor IV (PF4) was measured as a platelet functional marker. […] The low sensitivity to ADP raised a question about the full functionality of the particles as platelets. In order to examine whether it is due to lack of the appropriate ADP receptors, we performed RT-PCR analysis. There are two ADP receptors identified in platelets, ubiquitous P2Y1, and platelet-specific P2Y12. We detected P2Y1 expression in HEL cells stably transformed with an empty vector (HEL/CV), HEL/EDG6, and platelets. In contrast, P2Y12 was detected in HEL/EDG6 and platelets, but not in HEL/CV. […] The low responsiveness of the particles to ADP thus is likely due to desensitization of the ADP receptors, since the particles were prepared from a long-term culture and had been inevitably exposed to cellular components during culture. Alternatively the density of the particles may not have been high enough to exert a positive feedback amplified by mediators released from nearby particles.\nIsolation of platelets and platelet-like particles: Blood from healthy donors was collected into centrifuge tubes containing 20 mM sodium dyhydrogenphosphate dehydrate, 17 mM citric acid, 90 mM sodium citrate, and 13 mM Dextrose. HEL/S1P4 cells were cultured until cells released cytoplasmic particles (typically 10-18 days). Preparations were centrifuged at 200 g for 15 minutes. Supernatants obtained were centrifuged at 1600 g for 15 minutes. Sediments containing platelets or platelet-like particles were used in the experiments.\nPF4 release: Platelet-like particles were suspended in Dulbecco's modified Eagle medium (DMEM) and stimulated with 100 nM PMA or 50 μM ADP for 10 minutes. […] Platelet factor 4 in supernatants was measured with ZymutestPF4 enzyme-linked immunosorbent assay (Hyphen BioMed, France)."}, "[4]": {"target": "T1, Edg-6 (Homo sapiens, UniProt O95977)", "T1 construct": "host or cells: Edg-6-transfected Chinese hamster ovary (CHO) cells and K562 cells", "T1 sequence (O95977 1-384)": "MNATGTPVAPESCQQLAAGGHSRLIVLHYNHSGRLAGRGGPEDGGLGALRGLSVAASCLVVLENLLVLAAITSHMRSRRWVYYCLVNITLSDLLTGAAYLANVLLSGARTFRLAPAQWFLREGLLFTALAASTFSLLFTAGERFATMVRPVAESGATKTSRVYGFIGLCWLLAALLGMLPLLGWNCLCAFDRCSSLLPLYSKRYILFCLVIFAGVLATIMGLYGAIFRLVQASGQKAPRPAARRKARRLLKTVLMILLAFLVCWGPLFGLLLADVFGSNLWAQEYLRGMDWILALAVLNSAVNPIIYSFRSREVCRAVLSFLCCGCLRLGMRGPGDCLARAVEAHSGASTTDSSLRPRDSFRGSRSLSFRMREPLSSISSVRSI", "settings": "cited from earlier work; for increase in cytosolic Ca(2+) concentration: Edg-6-transfected CHO cells compared with vector-transfected cells"}, "[5]": {"target": "T1, Edg-6", "settings": "Edg-6-transfected CHO and K562 cells; cited from earlier work"}, "[6]": {"system": "HEL/CV cells", "test": "Rho, Rac and cdc42 assays, HEL/CV", "assay_type": "cell-based, human", "settings": "serum starvation, 1 μM S1P 1 minute", "procedure": "as §1\n(§2) Rho, Rac and cdc42 assays: Cells (5×10^6 for Cdc42 and Rac, 1×10^7 for Rho) were harvested and lysed with 50 mM Tris (pH 7.5), 100 mM NaCl, 1% Triton X-100, 5 mM MgCl2 containing protease inhibitors (Complete™, EDTA-free, Roche Diagnostics, Germany). Cell lysates were clarified by centrifugation at 15000 g at 4° C. for 5 minutes, and incubated with PAK-1 PBD agarose, Rhotekin RBD agarose (Upstate, N.Y.) and GST-WASP GBD beads idndly provided by Tatsuo Kinashi, Kyoto University) at 4° C. for 45 minutes with constant rotation. […] The amounts of Rho, Rac, cdc42, and WASP in 20 μg of whole cell lysates were also analyzed by Western Blot. After incubating with HRP-conjugated secondary antibodies, the blots were developed with ECL-Plus (Amersham Biosciences, UK). For examination of Rho, Rac and cdc42 responses to S1P treatment, cells were maintained in RPMI1640 containing 0.1% fatty-acid free BSA (Sigma) overnight. Cells were harvested and suspended in PBS, and stimulated with 1 μM S1P at 37° C. for 1 minute before cell lysis. Rho, Rac, and cdc42 in 20 μg of the whole cell lysates were also analyzed by Western blot for examination of protein expression. WASP in 20 μg of the whole cell lysates was detected using an anti-WASP antibody (Sigma, Mo.)."}, "[7]": {"system": "HEL/EDG6 cells", "test": "Rho, Rac and cdc42 assays, HEL/EDG6", "assay_type": "cell-based, human", "settings": "HEL/EDG6, serum starvation, 1 μM S1P 1 minute", "procedure": "as §1, §2"}, "[8]": {"system": "CD34+ hematopoietic progenitor cells", "test": "megakaryocyte colony formation assay", "assay_type": "cell-based, human", "procedure": "Mean colony number per well of CD41 positive (CFU-MK) and negative (non-MK) colonies are plotted with SD (n=4 to 8, left panels). […] The experiment was repeated twice with each progenitor and obtained similar results. # • (B) Megakaryocyte differentiation was induced for 12 days from the CD34^+ progenitor cells and the cells were separated for CD41 expression. RNAs from non-differentiated cells (Day 0), differentiated cells (Day 12), and peripheral platelets were analyzed for expression of S1P receptors by RT-PCR. Expression of 2-microglobulin is shown as an internal control.\nS1P was added to a megakaryocyte colony formation assay using CD34^+ hematopoietic progenitor cells in semi-solid culture. […] In order to examine the expression pattern of each S1P receptor during the in vitro maturation of megakaryocytes, CD34^+ progenitor cells were cultured in a liquid medium defined for megakaryocyte development, sorted for CD41 expression on day 12 of the culture, and subjected to RT-PCR analysis. Expression of S1P5 receptor in CD34^+ cells on day 0 was low and S1P1, S1P2, S1P3, and EDG6 were not detectable after 40 cycles (FIG. 6B). […] The pattern matched, although with different relative band intensities for EDG6 and S1P2, with the one seen in the platelet sample. […] The exact mechanisms by which S1P affects the differentiation however, remain to be elucidated. Among the receptors for S1P, we were most interested in the function of EDG6 in megakaryocytopoiesis, because EDG6 is expressed in the lung, and the lung is the second most prominent site of platelet production in body with a large population of terminally differentiated megakaryocytes in pulmonary microvessels. […]\nColony formation assay and preparation of CD41^+ cells: Cord blood CD34^+ cells and bone marrow CD34^+ cells (Bio Whittaker, Md.) were cultured in serum-free Iscove's modified Dulbecco's medium for 2 days. […] The chambers were incubated at 37° C. in a 5% CO2 atmosphere for 12 days then megakaryocyte colonies (CFU-MK) were stained for CD41 and scored following the manufacturer's procedure. […]"}, "[9]": {"system": "HEL/CV cells", "test": "morphogenesis assay, HEL/CV", "assay_type": "cell-based, human", "settings": "with PMA 10 nM, Y27632 30 μM or C3 exoenzyme 3 μg/ml, 72 hours", "procedure": "as §1"}}, "data": [{"compound": "CCCCCCCCCCCCCC(=O)O[C@@H]1[C@@H](C)[C@@]2(O)[C@@H](C=C(CO)C[C@]3(O)C(=O)C(C)=C[C@@H]23)[C@@H]2C(C)(C)[C@]12OC(C)=O", "note": "[PMA]", "values": [{"measurement": "cell morphology after PMA treatment", "setting": "[1]; HEL/EDG6, PMA 10 nM", "result": "formation of polyploidal large adherent cells with extended cytoplasmic projections resembling megakaryocyte processes"}, {"measurement": "cell morphology after PMA treatment", "setting": "[2]", "result": "induced large adherent cells"}, {"measurement": "release of Platelet Factor IV (PF4)", "setting": "[3]", "result": "significant amounts"}]}, {"compound": "Nc1ncnc2c1ncn2[C@@H]1O[C@H](COP(=O)(O)OP(=O)(O)O)[C@@H](O)[C@H]1O", "note": "[ADP]", "values": [{"measurement": "release of Platelet Factor IV (PF4)", "setting": "[3]", "result": "only minor amounts"}]}, {"compound": "lysophosphatidic acid [LPA]", "values": [{"measurement": "increase in cytosolic Ca(2+) concentration", "setting": "[4]", "result": "without change"}, {"measurement": "displacement of [(3)H]S1P binding", "setting": "[5]", "result": "inactive"}]}, {"compound": "pertussis toxin", "values": [{"measurement": "effect on lipid-induced actions (S1P, SPC)", "setting": "[4]; CHO and K562 cells expressing Edg-6, pertussis toxin treatment", "result": "markedly suppressed"}]}, {"compound": "CCCCCCCCCCCCC/C=C/[C@@H](O)[C@@H](N)COP(=O)(O)O", "note": "[S1P, sphingosine 1-phosphate]", "values": [{"measurement": "increase in cytosolic Ca(2+) concentration", "setting": "[4]", "result": "clearly enhanced"}, {"measurement": "GTP-Rac", "setting": "[6]", "result": "up-regulation"}, {"measurement": "GTP-Cdc42 increase", "setting": "[6]; data not shown", "result": "not in HEL/CV cells"}, {"measurement": "GTP-Rho decrease", "setting": "[6]; data not shown", "result": "not in HEL/CV cells"}, {"measurement": "displacement of [(3)H]S1P binding", "setting": "[5]", "result": "displaced the [(3)H]S1P binding"}, {"measurement": "GTP-Rac", "setting": "[7]", "result": "up-regulation"}, {"measurement": "GTP-Cdc42", "setting": "[7]; data not shown", "result": "increased"}, {"measurement": "GTP-Rho", "setting": "[7]; data not shown", "result": "decreased"}, {"measurement": "number of megakaryocyte colony forming units (CFU-MK)", "setting": "[8]; 10 μM S1P at beginning of culture, CD34+ cells from bone marrow and cord blood, 12 days", "result": "significantly reduced"}, {"measurement": "CFU-nonMK numbers", "setting": "[8]; 10 μM S1P, CD34+ cells from bone marrow and cord blood", "result": "remained unchanged or increased slightly"}, {"measurement": "% CFU-MK", "setting": "[8]; 10 μM S1P, cord blood or bone marrow CD34+ cells, Student's t-test", "result": "Significantly lower"}]}, {"compound": "C[C@@H](N)[C@H]1CC[C@H](C(=O)Nc2ccncc2)CC1", "note": "[Y27632]", "values": [{"measurement": "cytosolic extensions / morphology with cytoskeletal modulator", "setting": "[9]", "result": "induced cytosolic extensions"}, {"measurement": "cytosolic extensions / morphology with cytoskeletal modulator", "setting": "[1]; HEL/EDG6, with PMA 10 nM, Y27632 30 μM or C3 exoenzyme 3 μg/ml", "result": "did not induce any further effect"}]}, {"compound": "CCCCCCCCCCCCC/C=C/[C@@H](O)[C@@H](N)COP(=O)([O-])OCC[N+](C)(C)C", "note": "[SPC]", "values": [{"measurement": "increase in cytosolic Ca(2+) concentration", "setting": "[4]", "result": "clearly enhanced"}, {"measurement": "displacement of [(3)H]S1P binding", "setting": "[5]", "result": "displaced the [(3)H]S1P binding"}]}, {"compound": "thrombin", "values": [{"measurement": "release of Platelet Factor IV (PF4)", "setting": "[3]", "result": "significant amounts"}]}]}
